Values of other authors as cited in article PMC11956011, “An Amazing 30-Year Journey around the DABO Family: A Medicinal Chemistry Lesson on a Versatile Class of Non-nucleoside HIV-1 Reverse Transcriptase Inhibitors” (Journal of Medicinal Chemistry, 2025).
Converted amounts (≈) assume the structure as drawn. Where two headings read alike, the source gives them in different places.

Experiments:
HIV-1 [1] = tested on: HIV-1; parameters: method as in PMID 5787520; conditions: 3.5 μM; MoI = 5 CCID50/cell; 40 days
HIV-1 [2] = tested on: HIV-1
[3] = tested on: E138K HIV-1 mutant strain
[4] = tested on: Y181C HIV-1 mutant strain
C8166 cells = tested on: C8166 cells; parameters: method as in doi:10.1016/0223-5234(92)90009-P; conditions: Fig 2
Vero cells = tested on: Vero cells; parameters: method as in doi:10.1016/0223-5234(92)90009-P; conditions: Fig 2
HIV-1 [5] = tested on: HIV-1; parameters: method as in PMID 8602869; conditions: day 3 and 4 p.i.; read-out: p24 inhibition in PBMC-infected cells IC50
HIV-1 [6] = tested on: HIV-1; parameters: method as in PMID 8602869; conditions: read-out: syncytia reduction assay in MT-2-infected cells IC50
[7] = tested on: HIV-1 RT (WT, recombinant); conditions: for ID50: WT: Fig 9
HIV-1 IIIB = tested on: HIV-1 IIIB; parameters: method as in PMID 9748354, PMID 9554867; conditions: read-out: p24 inhibition in MT-4 infected cells, IC90: IIIB
P236L HIV-1 RT = tested on: P236L HIV-1 RT; parameters: method as in PMID 9748354, PMID 9554867
L-697661-R-IIIB (Y181C) = tested on: L-697661-R-IIIB (Y181C); parameters: method as in PMID 9748354, PMID 9554867; conditions: read-out: p24 inhibition in MT-4 infected cells, IC90: L-697661-R-IIIB (Y181C)
R88703-R-IIIB (Y181C) = tested on: R88703-R-IIIB (Y181C); parameters: method as in PMID 9748354, PMID 9554867; conditions: read-out: p24 inhibition in MT-4 infected cells, IC90: R88703-R-IIIB (Y181C)
E233V HIV-1 RT = tested on: E233V HIV-1 RT; parameters: method as in PMID 9748354, PMID 9554867
DLV-R-IIIB (L100I) = tested on: DLV-R-IIIB (L100I); parameters: method as in PMID 9748354, PMID 9554867; conditions: read-out: p24 inhibition in MT-4 infected cells, IC90: DLV-R-IIIB (L100I)
DLV-R-MF (P236L) = tested on: DLV-R-MF (P236L); parameters: method as in PMID 9748354, PMID 9554867; conditions: read-out: p24 inhibition in MT-4 infected cells, IC90: DLV-R-MF (P236L)
Y188H HIV-1 RT = tested on: Y188H HIV-1 RT; parameters: method as in PMID 9748354, PMID 9554867
Y181C HIV-1 RT = tested on: Y181C HIV-1 RT; parameters: method as in PMID 9748354, PMID 9554867
V106A HIV-1 RT = conditions: Fig 4
HIV-1IIIB = conditions: for ED50: HIV-1 IIIB: Fig 4
mock-infected cells = conditions: for CD50: Fig 4; for CC50: Fig 9
N119 (Y181C mutant) = conditions: for ED50: HIV-1 119: Fig 4; for Fold-resistance HIV-1 119 (ED50): Fig 4, in parentheses; for EC50: Fig 9
[8] = tested on: K103N HIV-1 mutant strain; conditions: Fig 9
[9] = tested on: Y188L HIV-1 mutant strain; conditions: Fig 9
[10] = tested on: IRLL98 clinical isolate (K101Q, Y181C, G190A); conditions: Fig 9
HIV-1 NL4-3 wt = conditions: Fig 9; read-out: EC50: NL4-3 wt
Y181I HIV-1 RT = conditions: Fig 9
[11] = tested on: EFV^R (K103R + V179D + P225H mutant); conditions: Fig 9
A17 (Y181C+K103N) = conditions: Fig 9
[12] = parameters: method as in doi:10.1039/c3md00247k; conditions: mouse models
[13] = parameters: method as in doi:10.1039/c3md00247k, PMID 21752202; conditions: in vivo
[14] = tested on: clinical isolates KM018, TC-2, and WAN; conditions: read-out: EC50 against clinical isolates KM018, TC-2, and WAN
[15] = rats
HBV = conditions: HBV-infected cells; read-out: HBV DNA IC50
malaria = tested on: malaria; parameters: method as in PMID 31191911
[16] = tested on: colon carcinoma HT-29 cells
[17] = tested on: non-small-cell lung cancer HOP-92 cells; parameters: method as in PMID 21849221; conditions: at 10 μM

## Cc1c(C(C)c2c(F)cccc2F)nc(N(C)C)[nH]c1=O (racemic) [compound 116]
HIV-1 [1]
  HIV-1 replication in acutely infected cultures after 4 h treatment: totally suppressed HIV-1 replication
other
  water solubility (in words): scant water solubility

## CCc1c(Cc2c(F)cccc2Cl)nc(SCC(=O)Nc2ccccc2)[nH]c1=O [A compound similar to 105–108]
HIV-1 [2]; read-out: EC50 against wild-type
  EC50: 190 nM
[3]
  EC50: 2.03 µM
[4]
  EC50: 2.13 µM

## CCCCOc1nc(Cc2ccc(OC)cc2)cc(=O)[nH]1 [compound 5]
C8166 cells
  TD50 C8166: 100 µg/mL
Vero cells
  TD50 Vero: 100 µg/mL

## Nc1cc(Cl)nc(SCc2ccccc2)n1 [compound 19, 4-amino-2-(benzylthio)-6-chloropyrimidine]
HIV-1 [5]
  IC50: 0.1 to 1 µM
MT-2 cells
  cytotoxicity in MT-2-infected cells: > 16 µM
HIV-1 [6]
  IC50: 0.4 to 4 µM
[7]; Fig 4, read-out: RT assay IC50
  IC50: 50 to 80 µM
PBMC
  cytotoxicity in PBMC-infected cells: > 16 µM

## C[C@H](Sc1nc(N)cc(Cl)n1)c1cc2ccoc2cn1 [compound 21, (−)-6-chloro-2-[(1-furo[2,3-c]pyridin-5-ylethyl)thio]-4-pyrimidinamine]
HIV-1 IIIB
  IC90: 0.001 µM
P236L HIV-1 RT
  IC50: 0.022 µM
L-697661-R-IIIB (Y181C)
  IC90: 1.1 µM
R88703-R-IIIB (Y181C)
  IC90: 0.17 µM
E233V HIV-1 RT
  IC50: 0.017 µM
DLV-R-IIIB (L100I)
  IC90: 0.07 µM
DLV-R-MF (P236L)
  IC90: 0.008 µM
[7]; Fig 4, read-out: RT assay, IC50: WT
  IC50: 0.02 µM
Y188H HIV-1 RT
  IC50: 0.077 µM
L100I HIV-1 RT
  IC50: 0.039 µM
Y181C HIV-1 RT
  IC50: 0.179 µM

## O=c1cc(Cc2ccccc2)nc(NCCCCO)[nH]1 [compound 23, 6-benzyl-N^2-(4-hydroxybutyl)isocytosine]
V106A HIV-1 RT
  Ki: 75 µM
[7]; Fig 4
  Ki: 140 µM
L100I HIV-1 RT; Fig 4
  Ki: 525 µM

## CCc1c(Cc2cc(C)cc(C)c2)n2c(nc1=O)SCCOC2 [compound 25]
HIV-1IIIB
  ED50: HIV-1 IIIB: 0.6 µM
mock-infected cells
  CD50: > 100 µM
N119 (Y181C mutant)
  ED50: HIV-1 119: 19 µM
  Fold-resistance HIV-1 119 (ED50): 32

## CCc1c(Cc2cc(C)cc(C)c2)nc2n(c1=O)COCCS2 [compound 26]
HIV-1IIIB
  ED50: HIV-1 IIIB: 1.6 µM
mock-infected cells
  CD50: > 100 µM
N119 (Y181C mutant)
  ED50: HIV-1 119: 6.3 µM
  Fold-resistance HIV-1 119 (ED50): 4

## Cc1c(O)nc(Sc2ccccc2)nc1Cc1c(F)cccc1F [compound 80]
[8]
  EC50: 42.5 µM
[9]
  EC50: > 72.7 µM
[10]
  EC50: 16.7 µM
[7]
  ID50: WT: 32 µM
mock-infected cells
  CC50: > 72.7 µM
HIV-1 NL4-3 wt
  EC50: 0.09 µM
Y181I HIV-1 RT
  ID50: Y181I: > 400 µM

## Cc1c(O)nc(Sc2ccc(Cl)cc2)nc1Cc1c(F)cccc1F [compound 81]
[8]
  EC50: 8.01 µM
[9]
  EC50: > 66.1 µM
[10]
  EC50: > 66.1 µM
[7]
  ID50: WT: 22 µM
mock-infected cells
  CC50: > 66.1 µM
HIV-1 NL4-3 wt
  EC50: 0.1 µM
Y181I HIV-1 RT
  ID50: Y181I: > 400 µM

## COc1ccncc1Sc1nc(Cc2c(Cl)cccc2Cl)c(C)c(=O)[nH]1 [compound 82]
[8]
  EC50: > 61.3 µM
[9]
  EC50: > 61.3 µM
[10]
  EC50: 8.68 µM
[7]
  ID50: WT: 3.5 µM
[4]; Fig 9
  EC50: 6.52 µM
mock-infected cells
  CC50: > 61.3 µM
HIV-1 NL4-3 wt
  EC50: 2.72 µM
Y181I HIV-1 RT
  ID50: Y181I: > 400 µM

## Cc1cc(C)cc(Cc2nc(Sc3ccccc3)[nH]c(=O)c2C)c1 [compound 83]
[11]
  EC50: 80 µM
A17 (Y181C+K103N)
  EC50: > 100 µM
HIV-1 [2]; read-out: EC50: HIV-1 wt, Fig 9
  EC50: 1700 nM
mock-infected cells
  CC50: > 100 µM
N119 (Y181C mutant)
  EC50: 5 µM

## COc1cccc(Sc2nc(Cc3cc(C)cc(C)c3)c(C)c(=O)[nH]2)c1 [compound 84]
[11]
  EC50: 100 µM
A17 (Y181C+K103N)
  EC50: > 100 µM
mock-infected cells
  CC50: > 100 µM
N119 (Y181C mutant)
  EC50: 2 µM

## Cc1cc(C)cc(Cc2nc(Sc3cccnc3)[nH]c(=O)c2C)c1 [compound 85]
[11]
  EC50: 55 µM
A17 (Y181C+K103N)
  EC50: > 55 µM
N119 (Y181C mutant)
  EC50: 8 µM

## Cc1cc(C)cc(Cc2nc(Sc3cccc4ccccc34)[nH]c(=O)c2C)c1 [compound 86]
[11]
  EC50: 80 µM
A17 (Y181C+K103N)
  EC50: > 100 µM
mock-infected cells
  CC50: > 100 µM
N119 (Y181C mutant)
  EC50: 5 µM

## CCCN(C)c1nc(C(C)c2c(F)cccc2F)c(C)c(=O)[nH]1 (stereo not drawn) [compound 119]
HIV-2ROD
  EC50: 8.6 µM

## Cc1c(C(C#N)c2c(F)cccc2F)nc(SC(C)C)[nH]c1=O (stereo not drawn) [compound 153]
[3]; Fig 12, in brackets
  Fold-resistance E138K (EC50 vs HIV-1IIIB): 2.4
[12]
  oral bioavailability (in words): optimal oral bioavailability
[13]
  acute toxicity (in words): without acute toxicity

## CCc1c(CC2CCCCC2)nc(SCC(=O)c2ccccc2)[nH]c1=O [compound 177]
HIV-1IIIB; read-out: EC50 anti-HIV-1 activity, further studies
  EC50: 0.0024 µM
HIV-1 [2]; read-out: EC50 anti-HIV-1 activity, first report, C8166 cells
  EC50: 0.012 nM
HIV-1 [2]; read-out: EC50 vs WT HIV-1
  EC50: 200 nM
[14]
  EC50: 0.00874 to 0.0418 µM

## CCc1c(CC2CCCCC2)nc(SCC(=O)c2ccc(OP(=O)(OC)OC)cc2)[nH]c1=O [compound 179]
HIV-1 [2]; more potent
  Potency against WT HIV-1 with respect to 177: 20 fold
More water-soluble
  Water solubility with respect to 177: 17 fold
mock-infected cells; more cytotoxic
  Cytotoxicity with respect to 177: 4.5 times

## CCc1c(CC2CCCCC2)nc(SCc2cc(-c3ccc(O)cc3)[nH]n2)[nH]c1=O [compound 180]
[15]
  pharmacokinetic properties and bioavailability (in words): acceptable

## CCc1c(CC2CCCCC2)nc(SCc2cc(-c3ccc(SC)cc3)[nH]n2)[nH]c1=O [compound 181]
[15]
  pharmacokinetic properties and bioavailability (in words): acceptable

## O=c1[nH]c(SC2O[C@H](CO)[C@H](O)[C@@H](O)[C@@H]2O)nc(Cc2ccccc2)c1Cc1ccccc1 (stereo partly drawn) [compound 185]
HBV
  IC50: 0.2 µM

## O=c1[nH]c(SC2OC[C@H](O)[C@@H](O)[C@@H]2O)nc(Cc2ccccc2)c1Cc1ccccc1 (stereo partly drawn) [compound 186]
HBV
  IC50: 0.2 µM

## O=C(CCCCSc1nc(-c2ccc(-c3ccccc3)cc2)cc(=O)[nH]1)NO [compound 195]
malaria
  outcome in in vivo malaria mouse model: failed

## COc1cc(-c2nc(SCC(=O)c3ccc(Cl)cc3)[nH]c(=O)c2C#N)ccc1OCc1ccccc1 [compound 197]
[16]
  LC50: HT29: 10.1 µg/mL (≈ 19.5 µM)
HePG2 cells
  LC50: HePG2: 20.9 µg/mL (≈ 40.3 µM)
Breast cancer MCF7 cells
  LC50: MCF7: 1.9 µg/mL (≈ 3.67 µM)

## N#Cc1c(-c2c(Cl)cccc2Cl)nc(SCC(=O)c2ccc(Br)cc2)[nH]c1=O [compound 199]
[17]
  inhibitory effect toward HOP-92: > 50%

## CCc1c(CC2CCCCC2)nc(SCC(=O)Nc2cc(F)cc(F)c2)[nH]c1=O [compound 211]
ZIKV
  ZIKV EC50 (Vero cells): inactive
